Assay results as given in patent US20230303547A1, “N-CYANOPYRROLIDINES WITH ACTIVITY AS USP30 INHIBITORS” (MISSION THERAPEUTICS LIMITED, priority 2020, published 2023).

How the values were obtained:
[1] = molecular target: Cathepsin S (Homo sapiens (Human), UniProt P25774); assay: Cathepsin S IC50; format: biochemical
[2] = test system: P-glycoprotein (MDR1), human; assay: MDR1-MDCK flux assay; format: in vitro ADME; details: dog, read-out: MDR1-MDCK Effective Efflux Ratio
From the text: The treatment of CNS disorders, including Alzheimer’s disease, Parkinson’s disease, and other disorders described herein, requires drug molecules to target the brain, which requires adequate penetration of the blood brain barrier. […] The probability that a compound can cross the blood brain barrier may be measured by an in vitro flux assay utilizing a MDR1-MDCK cell monolayer (Madin-Darby Canine Kidney cells transfected with MDR-1 resulting in overexpression of the human efflux transporter P-glycoprotein). Additionally, exposure may also be measured directly in brain and plasma using in vivo animal models.
MDR1-MDCK (Madin-Darby Canine Kidney cell monolayer) (in vitro) flux assay.

[3] = WT-MDCK in vitro flux; format: in vitro ADME; details: dog
From the text: WT-MDCK (wild-type) in vitro flux.

[4] = PK mouse 10 mg/kg po; format: in vivo; details: for Unbound plasma Cmax/TOM20-Ub cell potency: 10 mg/kg po dose - mouse; for Oral F: mouse, 10 mg/kg
From the text: Oral F: Oral bioavailability.

[5] = molecular target: hERG potassium channel (Homo sapiens (Human), UniProt Q12809); assay: hERG potassium channel current in CHO cells; format: cell-based; details: 30 µM, stably expressed CHO cells
Protocol: The hERG predictor assay provides valuable information about the possible binding of test compounds to the potassium channel and potential QT prolongation on […]. Inhibition of the hERG current causes QT interval prolongation resulting in potentially fatal ventricular tachyarrhythmia (Torsades de Pointes). Typically, assay data may be generated from an automated patch-clamp assay platform.
Example 2 was evaluated for effects on the hERG potassium channel, in stably expressed CHO cells at concentrations between 0.01 and 30 µM. Example 2 produced maximum inhibition value of 35% of the hERG current amplitude at 30 µM indicating little propensity for affecting the QT interval.

[6] = test system: Salmonella typhimurium strains TA98, TA100, TA1535 and TA97a and the Escherichia Coli strain WP2 uvrA pKM101; assay: Bacterial reverse mutation assay (Ames); format: cell-based; details: up to 5000 µg/plate with and without metabolic activation
Protocol: The bacterial reverse mutation assay (Ames Test) may be used to evaluate the mutagenic properties of compounds of the invention, commonly by using the bacterial strain Salmonella typhimurium, which is mutant for the biosynthesis of the amino acid histidine.
(§1) Example 2 was assessed in the bacterial reverse mutation assay (Ames) and in vitro micronucleus assay. All in vitro tests were conducted with and without exogenous metabolic activation using concentrations up to those limited by cytotoxicity or insolubility.

[7] = test system: TK6 cells; assay: In vitro micronucleus assay; format: cell-based; details: 27 hours recovery
Protocol: The micronucleus assay may be used to determine if a compound is genotoxic by evaluating the presence of micronuclei. Micronuclei may contain chromosome fragments produced from DNA breakage (clastogens) or whole chromosomes produced by disruption of the mitotic apparatus (aneugens).
as §1
Induction of chromosome damage was assessed using the in vitro micronucleus assay in TK6 cells. Example 2 was negative for induction of micronuclei when incubated for 3 hours in the presence of exogenous metabolic activation followed by 27 hours recovery, and also when incubated for 27 hours in the absence of exogenous metabolic activation followed by 27 hours recovery.

[8] = test system: Eurofins CEREP SafetyScreen44 panel; assay: Eurofins CEREP SafetyScreen44 panel; format: binding
From the text: Aside from selectivity over other DUB enzymes, it is important for a drug to have low affinity for other targets, and pharmacological profiling may be performed against panels of targets to assess the potential for, and to minimise, potential off-target effects. Examples of targets for which the compounds of the present invention may be screened against are those of the industry standard Eurofins-Cerep SafetyScreen44 panel, which includes 44 targets as a representative selection of GPCR receptors, transporters, ion channels, nuclear receptors, and kinase and non-kinase enzymes. Preferably, compounds of the invention have insignificant affinity against targets of this screening panel. Further examples of targets for which the compounds of the present invention may be screened against are kinases of the Thermo Fisher SelectScreen kinase profiling panel, which includes 39 targets as a representative selection of kinase enzymes. Preferably, compounds of the invention have insignificant affinity against targets of this screening panel. Additionally, examples of a particular enzyme class for which the compounds of the present invention may be screened against are the cathepsins (e.g. cathepsin A, B, C, H, K, L, L2, S, V and Z). Preferably, compounds of the invention have good selectivity for USP30 over one or more of these enzymes. […]

Sequence of Cathepsin S (P25774 115-331, species assumed): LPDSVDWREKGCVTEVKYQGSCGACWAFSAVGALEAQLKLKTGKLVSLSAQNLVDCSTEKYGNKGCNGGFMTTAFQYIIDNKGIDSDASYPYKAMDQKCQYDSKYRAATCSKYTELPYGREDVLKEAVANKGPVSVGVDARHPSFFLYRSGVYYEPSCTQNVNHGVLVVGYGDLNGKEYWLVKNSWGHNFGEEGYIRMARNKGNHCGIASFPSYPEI
Sequence of hERG potassium channel (Q12809 whole entry): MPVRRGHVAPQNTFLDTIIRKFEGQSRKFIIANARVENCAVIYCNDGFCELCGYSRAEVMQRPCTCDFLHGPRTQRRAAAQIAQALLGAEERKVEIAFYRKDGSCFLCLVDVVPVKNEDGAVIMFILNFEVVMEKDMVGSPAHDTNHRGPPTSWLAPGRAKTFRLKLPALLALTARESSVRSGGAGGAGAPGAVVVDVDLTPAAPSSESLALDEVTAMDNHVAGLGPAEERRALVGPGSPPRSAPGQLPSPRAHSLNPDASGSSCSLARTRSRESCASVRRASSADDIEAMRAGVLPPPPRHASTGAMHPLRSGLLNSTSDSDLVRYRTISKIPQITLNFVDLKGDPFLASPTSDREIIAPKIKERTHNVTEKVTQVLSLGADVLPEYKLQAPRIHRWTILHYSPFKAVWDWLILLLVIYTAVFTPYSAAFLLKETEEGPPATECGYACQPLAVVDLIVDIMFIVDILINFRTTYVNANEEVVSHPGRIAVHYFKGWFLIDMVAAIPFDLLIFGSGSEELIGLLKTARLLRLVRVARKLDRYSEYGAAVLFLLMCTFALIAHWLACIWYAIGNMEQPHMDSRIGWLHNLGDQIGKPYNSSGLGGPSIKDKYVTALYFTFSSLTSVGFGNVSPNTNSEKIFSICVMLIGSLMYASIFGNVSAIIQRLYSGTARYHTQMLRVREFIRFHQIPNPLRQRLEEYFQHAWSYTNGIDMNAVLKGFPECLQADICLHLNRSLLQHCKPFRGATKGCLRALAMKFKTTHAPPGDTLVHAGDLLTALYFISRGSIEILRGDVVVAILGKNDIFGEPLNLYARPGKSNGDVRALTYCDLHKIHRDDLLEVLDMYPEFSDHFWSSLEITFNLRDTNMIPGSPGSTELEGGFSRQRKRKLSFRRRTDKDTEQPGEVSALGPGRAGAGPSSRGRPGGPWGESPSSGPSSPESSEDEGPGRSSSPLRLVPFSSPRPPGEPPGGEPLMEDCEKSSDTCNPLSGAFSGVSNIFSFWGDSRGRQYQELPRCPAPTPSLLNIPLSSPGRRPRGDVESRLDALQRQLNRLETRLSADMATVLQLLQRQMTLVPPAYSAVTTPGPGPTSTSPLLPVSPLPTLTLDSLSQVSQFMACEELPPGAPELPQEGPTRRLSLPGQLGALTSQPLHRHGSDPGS

| SMILES | IC50 [1] | efflux ratio [2] | efflux ratio [3] | Papp A→B ([3]; A-B) | Unbound plasma Cmax/TOM20-Ub cell potency [4] | Oral F [4] | maximum inhibition of the hERG current amplitude [5] | induction of mutations in reverse mutation assay [6] | induction of micronuclei ([7]; 3 hours in the presence of exogenous metabolic activation) | induction of micronuclei ([7]; 27 hours in the absence of exogenous metabolic activation) | affinity for targets in this assay [8] |
| --- | --- | --- | --- | --- | --- | --- | --- | --- | --- | --- | --- |
| COC[C@@H]1C[C@@H](NC(=O)c2ncc(-c3cc(C#N)ccc3OC3CC3)o2)CN1C#N [Example 2, 5-(5-cyano-2-cyclopropoxyphenyl)-N-((3R,5S)-1-cyano-5-(methoxymethyl)pyrrolidin-3-yl)oxazole-2-carboxamide] | 91.2 µM | 15 | 0.7 | 10.7 ×10⁻⁶ cm/s | 140 | 47% | 35% | did not induce mutations | negative | negative |  |
| C[C@@H]1C[C@@H](NC(=O)c2ncc(-c3cc(C#N)ccc3OC3CC3)o2)CN1C#N [Example 1, 5-(5-cyano-2-cyclopropoxyphenyl)-N-((3R,5R)-1-cyano-5-methylpyrrolidin-3-yl)oxazole-2-carboxamide] | 54.4 µM |  |  |  | 45 | 37% |  |  |  |  | low affinity |
